In publication PMC5514153, “Targeting PTPRZ inhibits stem cell-like properties and tumorigenicity in glioblastoma cells” (Scientific Reports, 2017):

Key:
human U251 cells = experiment: Cellular effects in U251 cells; format: cell-based; details: proliferation, migration, SOX2 (Supplementary Fig. S4)
Protocol: This assay was performed as described previously. Briefly, cells were preincubated with compounds for 30 min, and then transferred onto a laminin-coated transwell insert in which the lower chambers contained epidermal growth factor (EGF, #E9644, Sigma-Aldrich). Cells were allowed to migrate for 3 h, and the number of cells that migrated to the lower surface was counted under a conventional fluorescence microscope.
Cells (3 × 10^4 cells) were inoculated into a 24-well plastic tissue culture plate with 500 µl of DMEM supplemented with 2% FBS and the indicated compounds for 48 h. Cells were harvested by trypsinization and then manually counted with a hemacytometer.
Cells were inoculated at 5 × 10^3 cells per 96-well uncoated polystyrene plate (# 9018, Corning) or 5 × 10^4 cells per 35-mm plastic petri dish (#351008, Corning), and cultured in a serum-free medium containing DMEM/F12 with 1x B27 supplement (#17504044, Thermo Fisher Scientific), EGF (20 ng/ml), and basic fibroblast growth factor (bFGF, 20 ng/ml, #064-05381, Wako pure chemical). After a 7-day culture, cells were fixed with 10% neutral formalin and pictured under a conventional microscope. The number of spheroids of approximately 70 µm in diameter were counted manually using Adobe Photoshop CS6 (Adobe).

C6 xenograft = experiment: C6 subcutaneous xenograft nude mouse model; format: in vivo; details: nude mice, i.p. twice per week; NAZ2329 45 µmol (22.5 mg)/kg, TMZ 50 mg/kg; vehicle 17 days
Protocol: Figure 10 Antitumor effects of NAZ2329 on the C6 mouse xenograft model. (A) Nude mice were subcutaneously implanted with C6 cells (5 × 10^6 cells), and tumor size was monitored until the criteria were met (>150 mm^3). At this time, mice were randomly divided into 4 treatment groups. DMSO as the vehicle control (n = 7), NAZ2329 (45 µmol (22.5 mg)/kg body weight, n = 9), temozolomide (TMZ, 50 mg/kg, n = 9), and the combination of NAZ2329 (45 µmol/kg) with TMZ (50 mg/kg) (n = 9) were administered intraperitoneally twice per week until the humane endpoint (>3,000 mm^3 tumor size or 40 days after the treatment). Tumor growth in each animal and the number of days required to reach a tumor volume of 3,000 mm^3 are shown in the graph. Five mice were sacrificed due to tumor necrosis (shown by gray symbols in the graph), and two mice unexpectedly died suddenly during the observation period (black symbols in the graph).
Parental or Ptprz-knockdown C6 cells (5 × 10^6 cells) suspended in a volume of 100 µl were subcutaneously injected into the left hind limbs of BALB/c-nu/nu mice (females, 4 weeks old mice were purchased from Japanese Charles River Co. Ltd.). Tumor growth was measured with calipers and calculated by the formula: volume = length × width × width × 0.5, as previously described. The drug treatment initiated when the tumor size reached 150 mm^3. […]

SMILES: CCOc1ccc(C(F)(F)F)cc1CSc1ccsc1C(=O)NS(=O)(=O)c1ccccc1 [NAZ2329]
- cellular effects in U251 cells compared with C6 cells (human U251 cells): exerted similar effects
- median day for the tumor size to reach 3,000 mm^3 (C6 xenograft): 25 days
